From ChEMBL document CHEMBL4270485, “Determination of Gymnemic Acid I as a Protein Biosynthesis Inhibitor Using Chemical Proteomics” (J Nat Prod, 2017)
Active and inactive are the calls of the source. The rule behind the calls is not given here.

How the values were obtained:
[1] = target: T1, 80S Ribosome (Homo sapiens) (UniProt P08865+P42677+P62753+P15880+P23396+P61247+P62701+P22090+P46782+P62081+P62241+P46781+P46783+P62280+P25398+P62277+P62263+P62841+P62244+P62249+P08708+P62269+P39019+P60866+P63220+P62266+P62847+P62851+P62854+P62979+P62857+P62273+P62861+P39023+P36578+P46777+Q02878+P18124+P62424+P62917+P32969+P27635+P62906+P62913+P30050+P26373+P40429+P50914+P61313+P18621+Q07020+Q02543+P84098+P46778+P35268+P62829+P62750+P83731+P61254+P61353+P46776+P46779+P47914+P62888+P62899+P62910+P49207+P42766+P18077+Q9Y3U8+P83881+P61927+P61513+P63173+P62891+P62945+P05388+P05386); experiment: Binding affinity to ribosomal protein S3 in human Hela cells lysates assessed as protein enrichment by Western blotting analysis; assay type: cell-free
[2] = Drug internalization in human HeLa cells at 1 uM by RP-HPLC-MS analysis; assay type: ADME, cell-based
[3] = system: HeLa; experiment: Inhibition of protein synthesis in human HeLa cells at 50 to 500 uM pre-incubated for 1 hr before L-[35S]-cysteine and L-[35S]-methionine addition and measured after 1 hr by Comassie staining based autoradiography; assay type: functional, cell-based
[4] = target: T1, 80S Ribosome (Homo sapiens); experiment: Binding affinity to 40S ribosomal protein S10 in human Hela cells lysates assessed as protein enrichment by measuring normalized heavy/light ratio at by nano-LC-ESIMS/MS analysis; assay type: cell-free
[5] = target: T1, 80S Ribosome (Homo sapiens); experiment: Binding affinity to 40S ribosomal protein S14 in human Hela cells lysates assessed as protein enrichment by measuring normalized heavy/light ratio at by nano-LC-ESIMS/MS analysis; assay type: cell-free
[6] = target: T1, 80S Ribosome (Homo sapiens); experiment: Binding affinity to 40S ribosomal protein S17 in human Hela cells lysates assessed as protein enrichment by measuring normalized heavy/light ratio at by nano-LC-ESIMS/MS analysis; assay type: cell-free
[7] = target: T1, 80S Ribosome (Homo sapiens); experiment: Binding affinity to 40S ribosomal protein S26 in human Hela cells lysates assessed as protein enrichment by measuring normalized heavy/light ratio at by nano-LC-ESIMS/MS analysis; assay type: cell-free
[8] = target: Small ribosomal subunit protein eS6 (Homo sapiens) (UniProt P62753); experiment: Binding affinity to 40S ribosomal protein S6 in human Hela cells lysates assessed as protein enrichment by measuring normalized heavy/light ratio at by nano-LC-ESIMS/MS analysis; assay type: cell-free
[9] = target: T1, 80S Ribosome (Homo sapiens); experiment: Binding affinity to 60S acidic ribosomal protein P1 in human Hela cells lysates assessed as protein enrichment by measuring normalized heavy/light ratio at by nano-LC-ESIMS/MS analysis; assay type: cell-free
[10] = target: T1, 80S Ribosome (Homo sapiens); experiment: Binding affinity to 60S ribosomal protein L15 in human Hela cells lysates assessed as protein enrichment by measuring normalized heavy/light ratio at by nano-LC-ESIMS/MS analysis; assay type: cell-free
[11] = target: T1, 80S Ribosome (Homo sapiens); experiment: Binding affinity to 60S ribosomal protein L23 in human Hela cells lysates assessed as protein enrichment by measuring normalized heavy/light ratio at by nano-LC-ESIMS/MS analysis; assay type: cell-free
[12] = target: T1, 80S Ribosome (Homo sapiens); experiment: Binding affinity to 60S ribosomal protein L31 in human Hela cells lysates assessed as protein enrichment by measuring normalized heavy/light ratio at by nano-LC-ESIMS/MS analysis; assay type: cell-free
[13] = target: T1, 80S Ribosome (Homo sapiens); experiment: Binding affinity to 60S ribosomal protein L4 in human Hela cells lysates assessed as protein enrichment by measuring normalized heavy/light ratio at by nano-LC-ESIMS/MS analysis; assay type: cell-free
[14] = target: Actin, cytoplasmic 1 (Homo sapiens) (UniProt P60709); experiment: Binding affinity to actin, Cytoplasmic1 in human Hela cells lysates assessed as protein enrichment by measuring normalized heavy/light ratio at by nano-LC-ESIMS/MS analysis; assay type: cell-free
[15] = target: Elongation factor 1-beta (Homo sapiens) (UniProt P24534); experiment: Binding affinity to elongation factor 1-beta in human Hela cells lysates assessed as protein enrichment by measuring normalized heavy/light ratio at by nano-LC-ESIMS/MS analysis; assay type: cell-free
Elongation factor 1-beta (Homo sapiens), sequence (P24534 whole entry): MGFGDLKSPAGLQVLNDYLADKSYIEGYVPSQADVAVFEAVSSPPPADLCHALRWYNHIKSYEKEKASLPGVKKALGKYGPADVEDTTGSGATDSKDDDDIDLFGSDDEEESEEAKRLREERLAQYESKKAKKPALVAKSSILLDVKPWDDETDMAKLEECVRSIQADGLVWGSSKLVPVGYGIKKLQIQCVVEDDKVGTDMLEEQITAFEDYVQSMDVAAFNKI

[16] = target: Elongation factor 1-delta (Homo sapiens) (UniProt P29692); experiment: Binding affinity to elongation factor 1-delta in human Hela cells lysates assessed as protein enrichment by measuring normalized heavy/light ratio at by nano-LC-ESIMS/MS analysis; assay type: cell-free
Elongation factor 1-delta (Homo sapiens), sequence (P29692 whole entry): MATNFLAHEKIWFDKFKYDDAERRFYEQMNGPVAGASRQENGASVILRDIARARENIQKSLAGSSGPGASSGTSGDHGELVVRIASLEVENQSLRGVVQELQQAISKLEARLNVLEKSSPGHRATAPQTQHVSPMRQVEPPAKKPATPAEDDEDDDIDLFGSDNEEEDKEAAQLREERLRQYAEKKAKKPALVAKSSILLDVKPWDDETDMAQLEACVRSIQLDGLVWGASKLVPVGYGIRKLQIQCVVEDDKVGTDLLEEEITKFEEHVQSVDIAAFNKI

[17] = target: Elongation factor 2 (Homo sapiens) (UniProt P13639); experiment: Binding affinity to elongation factor 2 in human Hela cells lysates assessed as protein enrichment by measuring normalized heavy/light ratio at by nano-LC-ESIMS/MS analysis; assay type: cell-free
[18] = target: Eukaryotic initiation factor 4A-II (Homo sapiens) (UniProt Q14240); experiment: Binding affinity to eukaryotic initiation factor 4A-II in human Hela cells lysates assessed as protein enrichment by measuring normalized heavy/light ratio at by nano-LC-ESIMS/MS analysis; assay type: cell-free
Eukaryotic initiation factor 4A-II (Homo sapiens), sequence (Q14240 whole entry): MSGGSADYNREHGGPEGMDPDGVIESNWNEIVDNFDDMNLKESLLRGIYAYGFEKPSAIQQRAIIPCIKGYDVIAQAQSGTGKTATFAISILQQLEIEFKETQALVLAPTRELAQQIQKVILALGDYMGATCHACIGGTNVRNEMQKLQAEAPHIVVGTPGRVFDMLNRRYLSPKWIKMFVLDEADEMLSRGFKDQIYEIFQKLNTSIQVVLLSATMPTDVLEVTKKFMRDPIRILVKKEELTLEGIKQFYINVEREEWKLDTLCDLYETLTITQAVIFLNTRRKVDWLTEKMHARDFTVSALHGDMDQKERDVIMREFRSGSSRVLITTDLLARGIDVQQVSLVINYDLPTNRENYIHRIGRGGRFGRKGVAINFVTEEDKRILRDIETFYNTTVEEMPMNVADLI

[19] = target: GTP-binding nuclear protein Ran (Homo sapiens) (UniProt P62826); experiment: Binding affinity to GTP-binding nuclear protein ran in human Hela cells lysates assessed as protein enrichment by measuring normalized heavy/light ratio at by nano-LC-ESIMS/MS analysis; assay type: cell-free
[20] = target: Heat shock protein HSP 90-beta (Homo sapiens) (UniProt P08238); experiment: Binding affinity to heat shock protein 90-beta in human Hela cells lysates assessed as protein enrichment by measuring normalized heavy/light ratio at by nano-LC-ESIMS/MS analysis; assay type: cell-free
Heat shock protein HSP 90-beta (Homo sapiens), sequence (P08238 whole entry): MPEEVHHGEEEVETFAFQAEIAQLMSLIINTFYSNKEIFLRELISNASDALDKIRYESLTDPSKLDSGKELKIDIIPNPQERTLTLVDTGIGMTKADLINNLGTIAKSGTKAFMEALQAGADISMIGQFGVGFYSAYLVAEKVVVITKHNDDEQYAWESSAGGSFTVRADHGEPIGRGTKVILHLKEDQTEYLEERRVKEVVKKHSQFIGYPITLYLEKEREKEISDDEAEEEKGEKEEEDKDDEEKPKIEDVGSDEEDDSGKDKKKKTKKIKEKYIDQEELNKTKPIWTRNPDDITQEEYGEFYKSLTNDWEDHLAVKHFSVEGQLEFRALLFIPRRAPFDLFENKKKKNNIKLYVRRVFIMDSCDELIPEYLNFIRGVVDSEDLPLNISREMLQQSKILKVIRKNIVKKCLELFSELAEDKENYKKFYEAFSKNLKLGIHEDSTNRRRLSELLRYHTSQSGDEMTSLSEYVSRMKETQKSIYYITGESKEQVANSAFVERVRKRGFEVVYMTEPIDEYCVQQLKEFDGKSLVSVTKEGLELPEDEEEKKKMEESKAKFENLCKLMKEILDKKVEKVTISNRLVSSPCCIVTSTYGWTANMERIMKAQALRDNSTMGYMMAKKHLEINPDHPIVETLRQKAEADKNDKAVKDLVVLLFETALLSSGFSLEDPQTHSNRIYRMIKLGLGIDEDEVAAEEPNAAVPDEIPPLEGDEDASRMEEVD

[21] = target: L-lactate dehydrogenase A chain (Homo sapiens) (UniProt P00338); experiment: Binding affinity to L-lactate dehydrogenase A chain in human Hela cells lysates assessed as protein enrichment by measuring normalized heavy/light ratio at by nano-LC-ESIMS/MS analysis; assay type: cell-free
[22] = target: Pyruvate kinase PKM (Homo sapiens) (UniProt P14618); experiment: Binding affinity to pyruvate kinase isozymes M1/M2 in human Hela cells lysates assessed as protein enrichment by measuring normalized heavy/light ratio at by nano-LC-ESIMS/MS analysis; assay type: cell-free
Pyruvate kinase PKM (Homo sapiens), sequence (P14618 2-531 limits assumed): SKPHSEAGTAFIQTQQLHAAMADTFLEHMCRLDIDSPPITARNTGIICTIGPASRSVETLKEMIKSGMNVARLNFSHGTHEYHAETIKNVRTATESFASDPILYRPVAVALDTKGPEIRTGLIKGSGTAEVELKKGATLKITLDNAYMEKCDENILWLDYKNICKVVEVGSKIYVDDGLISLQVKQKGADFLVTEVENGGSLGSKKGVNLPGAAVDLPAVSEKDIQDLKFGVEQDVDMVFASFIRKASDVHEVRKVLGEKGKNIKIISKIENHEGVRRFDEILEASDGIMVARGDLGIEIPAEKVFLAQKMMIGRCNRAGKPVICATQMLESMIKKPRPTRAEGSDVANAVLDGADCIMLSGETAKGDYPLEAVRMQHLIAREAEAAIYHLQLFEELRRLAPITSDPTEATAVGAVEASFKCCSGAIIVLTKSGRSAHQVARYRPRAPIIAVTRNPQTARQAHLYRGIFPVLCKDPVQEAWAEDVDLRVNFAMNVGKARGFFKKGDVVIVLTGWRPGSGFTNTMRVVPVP

[23] = target: Transketolase (Homo sapiens) (UniProt P29401); experiment: Binding affinity to transketolase in human Hela cells lysates assessed as protein enrichment by measuring normalized heavy/light ratio at by nano-LC-ESIMS/MS analysis; assay type: cell-free
Transketolase (Homo sapiens), sequence (P29401 whole entry): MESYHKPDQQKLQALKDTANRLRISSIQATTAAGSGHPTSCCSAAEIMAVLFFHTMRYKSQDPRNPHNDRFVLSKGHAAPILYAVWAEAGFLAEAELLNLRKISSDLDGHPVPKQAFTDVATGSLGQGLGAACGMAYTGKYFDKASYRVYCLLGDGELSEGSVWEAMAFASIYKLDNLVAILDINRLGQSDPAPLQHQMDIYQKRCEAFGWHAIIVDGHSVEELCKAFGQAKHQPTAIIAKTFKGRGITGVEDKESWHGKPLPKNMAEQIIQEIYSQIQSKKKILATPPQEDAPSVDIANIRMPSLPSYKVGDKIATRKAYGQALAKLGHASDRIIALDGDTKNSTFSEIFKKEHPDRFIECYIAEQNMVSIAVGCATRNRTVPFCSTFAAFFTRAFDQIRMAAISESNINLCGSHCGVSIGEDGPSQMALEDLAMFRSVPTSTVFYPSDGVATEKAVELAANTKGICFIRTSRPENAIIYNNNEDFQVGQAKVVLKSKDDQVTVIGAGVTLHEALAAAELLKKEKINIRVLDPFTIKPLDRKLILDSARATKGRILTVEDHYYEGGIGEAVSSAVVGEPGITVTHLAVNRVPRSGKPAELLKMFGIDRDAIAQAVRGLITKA

[24] = target: Trypsin (Homo sapiens) (UniProt P07477+P07478+P35030); experiment: Binding affinity to trypsin in human Hela cells lysates assessed as protein enrichment by measuring normalized heavy/light ratio at by nano-LC-ESIMS/MS analysis; assay type: cell-free
[25] = target: Tubulin alpha-1B chain (Homo sapiens) (UniProt P68363); experiment: Binding affinity to tubulin alpha-1B chain in human Hela cells lysates assessed as protein enrichment by measuring normalized heavy/light ratio at by nano-LC-ESIMS/MS analysis; assay type: cell-free
Tubulin alpha-1B chain (Homo sapiens), sequence (P68363 whole entry, looked up): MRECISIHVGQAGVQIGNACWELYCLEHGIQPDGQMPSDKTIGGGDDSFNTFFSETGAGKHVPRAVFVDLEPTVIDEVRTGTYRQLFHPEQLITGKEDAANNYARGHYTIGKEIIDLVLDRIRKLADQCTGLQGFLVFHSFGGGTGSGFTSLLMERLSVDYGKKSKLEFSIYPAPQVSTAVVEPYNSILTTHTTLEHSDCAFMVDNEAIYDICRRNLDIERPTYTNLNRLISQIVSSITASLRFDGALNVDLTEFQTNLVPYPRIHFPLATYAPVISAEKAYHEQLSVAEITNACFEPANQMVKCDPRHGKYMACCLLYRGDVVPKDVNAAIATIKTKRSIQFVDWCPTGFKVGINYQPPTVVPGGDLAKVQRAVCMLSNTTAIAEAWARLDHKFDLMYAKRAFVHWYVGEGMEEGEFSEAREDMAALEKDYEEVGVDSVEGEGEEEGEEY

[26] = target: Vimentin (Homo sapiens) (UniProt P08670); experiment: Binding affinity to vimentin in human Hela cells lysates assessed as protein enrichment by measuring normalized heavy/light ratio at by nano-LC-ESIMS/MS analysis; assay type: cell-free
Vimentin (Homo sapiens), sequence (P08670 whole entry): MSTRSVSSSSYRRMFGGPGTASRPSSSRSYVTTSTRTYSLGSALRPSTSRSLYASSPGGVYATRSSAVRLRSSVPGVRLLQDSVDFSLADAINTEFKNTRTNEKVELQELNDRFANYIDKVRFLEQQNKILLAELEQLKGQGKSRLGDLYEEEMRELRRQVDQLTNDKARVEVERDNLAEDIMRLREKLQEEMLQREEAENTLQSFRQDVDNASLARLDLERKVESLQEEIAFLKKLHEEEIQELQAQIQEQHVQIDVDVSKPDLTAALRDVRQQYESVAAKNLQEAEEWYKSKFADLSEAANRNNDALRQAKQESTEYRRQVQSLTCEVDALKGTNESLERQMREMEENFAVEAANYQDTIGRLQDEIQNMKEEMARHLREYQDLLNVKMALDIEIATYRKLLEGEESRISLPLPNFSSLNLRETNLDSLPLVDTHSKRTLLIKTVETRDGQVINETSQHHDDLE

[27] = Binding affinity to brain acid soluble protein 1 in human Hela cells lysates assessed as protein enrichment by measuring normalized heavy/light ratio at by nano-LC-ESIMS/MS analysis

With `C/C=C(\C)C(=O)O[C@H]1[C@H](O)[C@]2(COC(C)=O)[C@@H](O)C[C@]3(C)C(=CC[C@@H]4[C@@]5(C)CC[C@H](O[C@@H]6O[C@H](C(=O)O)[C@@H](O)[C@H](O)[C@H]6O)[C@@](C)(CO)[C@@H]5CC[C@]43C)[C@@H]2CC1(C)C` the Activity [1] was “Active”, the Drug uptake [2] was 4% and the inhibition [3] was “Dose-dependent effect”. For the same molecule, the Ratio [4] was 0.39, the Ratio [5] was 0.405 and the Ratio [6] was 0.069. For the same molecule, the Ratio [7] was 0.158, the Ratio [8] was 0.317 and the Ratio [9] was 0.27. It also gave a Ratio [10] of 0.818, a Ratio [11] of 0.527 and a Ratio [12] of 0.439. For the same molecule, the Ratio [13] was 0.396, the Ratio [14] was 0.436 and the Ratio [15] was 0.525. The Ratio [16] was 0.622, the Ratio [17] was 0.688 and the Ratio [18] was 0.404. For the same molecule, the Ratio [19] was 1.53, the Ratio [20] was 0.737 and the Ratio [21] was 0.48. The Ratio [22] was 0.899, the Ratio [23] was 0.623 and the Ratio [24] was 1. For the same molecule, the Ratio [25] was 0.523, the Ratio [26] was 0.817 and the Ratio [27] was 0.744.
